Key:
Assay type in all cases: in vivo
[1] = system: Surinam grass (Brachiaria decumbens); experiment: Test B postemergence; conditions: 13 to 15 days
How it was run: (§1)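 Greenhouse test: chemicals are formulated in a surfactant-containing non-phytotoxic solvent and applied either preemergence to planted seeds or postemergence to plants 2 to 18 cm tall. Response is rated visually versus controls after 13 to 15 days, 0 meaning no effect and 100 complete control.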

[2] = system: barnyardgrass (Echinochloa crus-galli); experiment: Test B postemergence; conditions: 13 to 15 days
How it was run: as §1

[3] = system: blackgrass (Alopecurus myosuroides); experiment: Test B postemergence; conditions: 13 to 15 days
How it was run: as §1

[4] = system: cocklebur (Xanthium strumarium); experiment: Test B postemergence; conditions: 13 to 15 days
How it was run: as §1

[5] = system: corn (Zea mays); experiment: Test B postemergence; conditions: 13 to 15 days
How it was run: as §1

[6] = system: crabgrass (Digitaria sanguinalis); experiment: Test B postemergence; conditions: 13 to 15 days
How it was run: as §1

[7] = system: giant foxtail (Setaria faberii); experiment: Test B postemergence; conditions: 13 to 15 days
How it was run: as §1

[8] = system: lambsquarters (Chenopodium album); experiment: Test B postemergence; conditions: 13 to 15 days
How it was run: as §1

[9] = system: morning glory (Ipomoea hederacea); experiment: Test B postemergence; conditions: 13 to 15 days
How it was run: as §1

[10] = system: pigweed (Amaranthus retroflexus); experiment: Test B postemergence; conditions: 13 to 15 days
How it was run: as §1

[11] = system: velvetleaf (Abutilon theophrasti); experiment: Test B postemergence; conditions: 13 to 15 days
How it was run: as §1

[12] = system: wheat (Triticum aestivum); experiment: Test B postemergence; conditions: 13 to 15 days
How it was run: as §1

[13] = system: wild oat (Avena fatua); experiment: Test B postemergence; conditions: 13 to 15 days
How it was run: as §1

[14] = system: Surinam grass (Brachiaria decumbens); experiment: Test B preemergence
How it was run: as §1

[15] = system: barnyardgrass (Echinochloa crus-galli); experiment: Test B preemergence
How it was run: as §1

[16] = system: cocklebur (Xanthium strumarium); experiment: Test B preemergence
How it was run: as §1

[17] = system: corn (Zea mays); experiment: Test B preemergence
How it was run: as §1

[18] = system: crabgrass (Digitaria sanguinalis); experiment: Test B preemergence
How it was run: as §1

[19] = system: giant foxtail (Setaria faberii); experiment: Test B preemergence
How it was run: as §1

[20] = system: lambsquarters (Chenopodium album); experiment: Test B preemergence
How it was run: as §1

[21] = system: morning glory (Ipomoea hederacea); experiment: Test B preemergence
How it was run: as §1

[22] = system: pigweed (Amaranthus retroflexus); experiment: Test B preemergence
How it was run: as §1

[23] = system: rice (Oryza saliva); experiment: Test B preemergence
How it was run: as §1

[24] = system: velvetleaf (Abutilon theophrasti); experiment: Test B preemergence
How it was run: as §1

[25] = system: rice (Oryza saliva); experiment: Test C flooded paddy test; conditions: for Rice plant response rating: Flooded Paddy, scale 0 to 100, 0 no effect, 100 complete control; for Plant response rating, Rice: flooded paddy test, scale 0 to 100 (0 no effect, 100 complete control)
How it was run: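 Rice and three paddy weeds were grown to the 2-leaf stage under flooded conditions, then treated and kept in a greenhouse for 12–14 days. Response was rated visually against untreated controls on a 0–100 scale, where 100 is complete control.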

[26] = system: Nightshade; experiment: Test C preemergence; conditions: Rate 500 g/ha, visual evaluation after 12 to 14 days
[27] = system: Sunflower; experiment: Test C preemergence; conditions: Rate 250 g/ha, scale 0 to 100, 0 no effect, 100 complete control
[28] = Rate 125 g/ha, scale 0 (no effect) to 100 (complete control)
[29] = Rate 500 g/ha, scale 0 to 100, 0 is no effect, 100 is complete control
[30] = Preemergence, Rate 500 g/ha, scale 0 to 100, 0 no effect, 100 complete control
[31] = preemergence, Rate 125 g/ha, scale of 0 to 100 where 0 is no effect and 100 is complete control, 13 to 15 days

## CC(C)(C)c1ccn(C2CCN(c3ccc(F)c(Br)c3)C2=O)n1 (stereo not drawn) [Compound 75]
[1]; [28]
  Plant response rating, Surinam grass: 0
[1]; [29]
  Plant response rating, Surinam grass: 0
[2]; [28]
  Plant response rating, Barnyardgrass: 0
[2]; [29]
  Plant response rating, Barnyardgrass: 0
[3]; [28]
  Plant response rating, Blackgrass: 0
[3]; [29]
  Plant response rating, Blackgrass: 0
[4]; [28]
  Plant response rating, Cocklebur: 0
[4]; [29]
  Plant response rating, Cocklebur: 0
[5]; [28]
  Plant response rating, Corn: 0
[5]; [29]
  Plant response rating, Corn: 0
[6]; [28]
  Plant response rating, Crabgrass: 0
[6]; [29]
  Plant response rating, Crabgrass: 0
[7]; [28]
  Plant response rating, Foxtail, Giant: 0
[7]; [29]
  Plant response rating, Foxtail, Giant: 0
[8]; [28]
  Plant response rating, Lambsquarters: 70
[8]; [29]
  Plant response rating, Lambsquarters: 80
[9]; [28]
  Plant response rating, Morningglory: 20
[9]; [29]
  Plant response rating, Morningglory: 60
[10]; [28]
  Plant response rating, Pigweed: 50
[10]; [29]
  Plant response rating, Pigweed: 90
[11]; [28]
  Plant response rating, Velvetleaf: 0
[11]; [29]
  Plant response rating, Velvetleaf: 50
[12]; [28]
  Plant response rating, Wheat: 0
[12]; [29]
  Plant response rating, Wheat: 0
[13]; [28]
  Plant response rating, Wild Oat: 0
[13]; [29]
  Plant response rating, Wild Oat: 0
[14]; [30]
  Plant response rating, Surinam grass: 100
[14]; [31]
  Plant response rating, Surinam grass: 60
[15]; [30]
  Plant response rating, Barnyardgrass: 100
[15]; [31]
  Plant response rating, Barnyardgrass: 100
[16]; [30]
  Plant response rating, Cocklebur: 70
[16]; [31]
  Plant response rating, Cocklebur: 30
[17]; [30]
  Plant response rating, Corn: 20
[17]; [31]
  Plant response rating, Corn: 0
[18]; [30]
  Plant response rating, Crabgrass: 100
[18]; [31]
  Plant response rating, Crabgrass: 100
[19]; [30]
  Plant response rating, Foxtail, Giant: 100
[19]; [31]
  Plant response rating, Foxtail, Giant: 100
[20]; [30]
  Plant response rating, Lambsquarters: 100
[20]; [31]
  Plant response rating, Lambsquarters: 100
[21]; [30]
  Plant response rating, Morningglory: 0
[21]; [31]
  Plant response rating, Morningglory: 0
[22]; [30]
  Plant response rating, Pigweed: 100
[22]; [31]
  Plant response rating, Pigweed: 100
[23]; [30]
  Plant response rating, Rice: 70
[23]; [31]
  Plant response rating, Rice: 50
[24]; [30]
  Plant response rating, Velvetleaf: 70
[24]; [31]
  Plant response rating, Velvetleaf: 50
[25]; Rate 250 g/ha
  Rice plant response rating: 30
[25]; Rate 500 g/ha
  Rice plant response rating: 40
[25]; Rate 62 g/ha
  Plant response rating, Rice: 0
[25]; Rate 125 g/ha
  Plant response rating, Rice: 0
[26]
  Plant response rating (0 to 100), Nightshade: 50
[27]
  Plant response rating, Sunflower: 0

From patent publication US7138361B2, “Herbicidal heterocycles” (E. I. du Pont de Nemours and Company, priority 2000, dated 2006)
